Entries after “also recorded” stand apart in the source; their conditions may differ. Marks after values point to notes of the source that are not given here.
Columns and labels:
Type in all cases: in vivo, human
[1] = test system: Subjects with Major Depressive Disorder; experiment: Phase 2 open-label study (Part A): HAM-D, MADRS, HAM-A efficacy
Experimental: (§1) In this multicenter, open-label, Phase 2 clinical trial, subjects were administered 30 mg Compound 1 on Days 1-14 and assessed through Day 28. Reductions in depressive and anxiety symptoms were assessed by the Hamilton Rating Scales for Depression and Anxiety (HAM-D and HAM-A), and the Montgomery-Asberg Depression Rating Scale (MADRS). Safety and tolerability were assessed via standard safety parameters. Pharmacokinetic parameters were also evaluated.
Written informed consent was provided at screening and was required for enrollment. The diagnosis of MDD was made using the Structured Clinical Interview for Diagnostic and Statistical Manual of Mental Disorders, Fifth Edition (DSM-5) Axis I Disorders (SCID-I), as performed by a qualified healthcare professional. Subjects were also screened with the 17-item Hamilton Rating Scale for Depression (HAM-D) to ensure symptom severity of at least 22. Hamilton Anxiety Rating Scale (HAM-A), Montgomery-Asberg Depression Rating Scale (MADRS), and Clinical Global Impression-Severity (CGI-S) scale were also administered. Using the 17-item HAM-D scale, a patient with a summed score of 17-23 was considered to have moderate depression; a summed score of ≥24 was considered severe depression. Patient histories and concomitant medication information were collected. The study population included subjects of both sexes, ages 18-65 years old, inclusive (inclusion/exclusion criteria below). Subjects remained as inpatients during the first 7 days of the study period and per Investigator's judgement thereafter. Subjects received the standard of care for adult inpatients diagnosed with MDD and were allowed to remain on a stable dose of psychotropic medications that were initiated at least 14 days prior to screening.
(§2) Compound 1 was provided as a 6 mg/mL stock aqueous solution, which was further diluted with sterile water to achieve the selected dose that was administered as an oral solution. Participants received an open label 30 mg Compound 1 oral dose administered at 8:00 PM (+/−15 minutes) with food on Days 1 through 14. Subjects who experienced drug-related moderate or severe adverse events (as judged by the study investigators) while receiving the 30 mg dose of study drug were to have their dose reduced to 20 mg for the remaining treatment period. Any subjects not tolerating a 20 mg dose were to be terminated from the study. Vital signs were collected daily. Other study procedures and plasma collection for PK parameters were conducted at various times during the 14-day open label treatment period (procedure details in the Supplemental Appendix). Treatment follow-up was conducted on an outpatient basis and included a follow-up visit at 1 week (21+/−1 day) and at 2 weeks (28+/−1 day) after the last dose of the study drug.
(§3) The primary endpoint of safety and tolerability of Compound 1 was assessed by the frequency and severity of adverse events, vital signs, changes in clinical laboratory measures, physical exams, electrocardiograms (ECGs), the Stanford Sleepiness Scale (SSS) score, and suicide ideation using the Columbia-Suicide Severity Rating Scale (C-SSRS, Supplemental Table 1). Secondary efficacy endpoints included: change from baseline in HAM-D total score, HAM-D response, defined as having a 50% or greater reduction from baseline in HAM-D total score, HAM-D remission, defined as having a HAM-D total score of ≤7, HAM-A change from baseline, and MADRS score change from baseline. The PK profile of Compound 1 was also determined from plasma samples.
Continuous parameters were summarized as n, mean, and standard deviation, with categorical variables summarized as frequency counts and percentages. For HAM-D, HAM-A, and MADRS total scores, p-values for change from baseline values were calculated based on mixed effects model for repeated measures with visit as fixed effect, adjusting for baseline total score. […]

[2] = test system: Subjects with Major Depressive Disorder; experiment: Phase 2 open-label study (Part A): safety and tolerability (TEAEs, C-SSRS); conditions: N=13
Experimental: as §1, §2, §3
Subjects were monitored for safety during the Treatment and Follow-up Periods including monitoring for adverse events/serious adverse events, routine clinical laboratory assessments, physical examination, vital signs, and ECG. During the Treatment Period, subjects received study drug as long as there are no dose-limiting safety/tolerability concerns

[3] = test system: Adult patients with moderate to severe Major Depressive Disorder (MDD); experiment: Phase 2 double-blind placebo-controlled trial (Part B): HAM-D efficacy
Experimental: (§4) In the randomized, double-blind, parallel-group, placebo-controlled trial, eligible patients (with a minimum total score of 22 on the Hamilton Rating Scale for Depression) were stratified based on use of antidepressant treatment (current/stable or not treated/withdrawn ≥30 days) and randomized in a 1:1 ratio to receive Compound 1 Capsules (30 mg) or matching placebo. All doses of study drug were administered at night with food. The study consisted of a 14-day treatment period, and a 4-week follow-up period. The mean HAM-D total scores at baseline were 25.2 for the Compound 1 group and 25.7 for the placebo group (overall range 22-33), representing patients with moderate to severe MDD. Approximately 90 percent of patients in each group completed the study.

[4] = test system: Adult patients with moderate to severe Major Depressive Disorder (MDD); experiment: Phase 2 double-blind placebo-controlled trial (Part B): safety and tolerability
Experimental: as §4

[5] = Day 15, 30 mg once daily Days 1-14, N=13

**Q.** C[C@@]1(O)CC[C@H]2[C@H](CC[C@@H]3[C@@H]2CC[C@]2(C)[C@@H](C(=O)Cn4cc(C#N)cn4)CC[C@@H]32)C1 [Compound 1, 1-(2-((3R,5R,8R,9R,10S,13S,14S,17S)-3-hydroxy-3,13-dimethylhexadecahydro-1H-cyclopenta[a]phenanthren-17-yl)-2-oxoethyl)-1H-pyrazole-4-carbonitrile] was tested. Which “HAM-D remission rate (HAM-D total score ≤7)” value ([1]; Day 15, end of the treatment period, N=13) did it give?
**A.** Its value is 62%.

**Q.** What about the “HAM-A total score, mean decrease from baseline” value [1, 5] of the same compound?
**A.** Its value is 15.5 points.

**Q.** And the “HAM-D total score, mean decrease from baseline” value [1, 5]?
**A.** Its value is 19.9 points.

**Q.** And the “MADRS total score, mean decrease from baseline” value [1, 5]?
**A.** Its value is 26.4 points.

**Q.** What about the “HAM-A mean total score” value ([1]; Day 15, 30 mg once daily Days 1-14, baseline 23.2, N=13) of the same compound?
**A.** Its value is 7.7.

**Q.** And the “MADRS mean total score” value ([1]; Day 15, 30 mg once daily Days 1-14, baseline 36.9, N=13)?
**A.** The value was 10.5.

**Q.** And the “HAM-D mean total score” value ([1]; Day 15, 30 mg oral solution once daily Days 1-14 with food, baseline 27.2, N=13)?
**A.** Its value is 7.3.

**Q.** And the HAM-D response rate ([1]; Day 15, absence of antidepressants at enrollment (n=8))?
**A.** Its HAM-D response rate is 75.0%.

**Q.** What about the “HAM-D response rate (total score reduced by at least 50%)” value ([1]; Day 15, all 13 subjects) of the same compound?
**A.** Its value is 85%.

**Q.** What about the HAM-D response rate ([1]; Day 15, presence of antidepressants at enrollment (n=5)) of the same compound?
**A.** Its HAM-D response rate is 100%.

**Q.** What about the HAM-D response rate ([1]; Day 28, absence of antidepressants at enrollment (n=8)) of the same compound?
**A.** The HAM-D response rate was 75%.

**Q.** What about the HAM-D response rate ([1]; Day 28, presence of antidepressants at enrollment (n=5)) of the same compound?
**A.** The HAM-D response rate was 80%.

**Q.** And the “HAM-D remission rate (HAM-D total score ≤7)” value ([1]; by Day 6, N=13)?
**A.** Its value is 39%.

**Q.** And the “time at which significant reductions in depressive symptoms (HAM-D) were seen” value ([1]; p<0.05, 30 mg once daily)?
**A.** Its value is “as early as Day 2”.

**Q.** What about the “At least one TEAE, number of subjects” value ([2]; 30 mg once daily Days 1-14) of the same compound?
**A.** Its value is 12 subjects.

**Q.** What about the tolerability ([2]; 30 mg once daily Days 1-14) of the same compound?
**A.** Its tolerability is “generally well tolerated”.

**Q.** And the “C-SSRS Subject engaged in non-suicidal self-injurious behavior, number of subjects who answered yes” value ([2]; Day 2-15 (yes on Days 10-13))?
**A.** The value was 1*.

**Q.** And the “C-SSRS Aborted attempt, number of subjects who answered yes” value ([2]; Day 2-15)?
**A.** Its value is 0.

**Q.** And the “C-SSRS Actual attempt, number of subjects who answered yes” value ([2]; Day 2-15)?
**A.** Its value is 0.

**Q.** What about the “C-SSRS Interrupted attempt, number of subjects who answered yes” value ([2]; Day 2-15) of the same compound?
**A.** Its value is 0.

**Q.** And the “C-SSRS Preparatory acts or behavior, number of subjects who answered yes” value ([2]; Day 2-15)?
**A.** The value was 0.

**Q.** What about the “C-SSRS Suicidal behavior, number of subjects who answered yes” value ([2]; Day 2-15) of the same compound?
**A.** Its value is 0.

**Q.** And the “Dizziness, number of subjects” value [2]?
**A.** Its value is 3 subjects.

**Q.** What about the “Dizziness, percent of subjects” value [2] of the same compound?
**A.** Its value is “(23.1%)”.

**Q.** What about the “Drug-related TEAE, number of subjects” value [2] of the same compound?
**A.** The value was 11 subjects.

**Q.** What about the “Drug-related TEAE, percent of subjects” value [2] of the same compound?
**A.** Its value is “(84.6%)”.

**Q.** And the “Headache, number of subjects” value [2]?
**A.** Its value is 4 subjects.

**Q.** What about the “Headache, percent of subjects” value [2] of the same compound?
**A.** The value was “(30.8%)”.

**Q.** And the “Myalgia, number of subjects” value [2]?
**A.** The value was 3 subjects.

**Q.** What about the “Myalgia, percent of subjects” value [2] of the same compound?
**A.** Its value is “(23.1%)”.

**Q.** And the “Nasal Congestion, number of subjects” value [2]?
**A.** Its value is 2 subjects.

**Q.** What about the “Nasal Congestion, percent of subjects” value [2] of the same compound?
**A.** Its value is “(15.4%)”.

**Q.** And the “Sedation, number of subjects” value [2]?
**A.** Its value is 6 subjects.

**Q.** What about the “Sedation, percent of subjects” value [2] of the same compound?
**A.** Its value is “(46.2%)”.

**Q.** What about the “Serious AE, number of subjects” value [2] of the same compound?
**A.** Its value is 0 subjects.

**Q.** And the “Severe TEAE, number of subjects” value [2]?
**A.** The value was 0 subjects.

**Q.** What about the “Somnolence, number of subjects” value [2] of the same compound?
**A.** Its value is 3 subjects.

**Q.** What about the “Somnolence, percent of subjects” value [2] of the same compound?
**A.** The value was “(23.1%)”.

**Q.** What about the “TEAE leading to death, number of subjects” value [2] of the same compound?
**A.** Its value is 0 subjects.

**Q.** And the “TEAE leading to drug discontinuation, number of subjects” value [2]?
**A.** Its value is 0 subjects.

**Q.** And the “changes in clinical hematology, urinalysis, vital signs, or ECGs” value [2]?
**A.** The value was “no clinically relevant changes”.

**Q.** And the “serious adverse events (SAEs) or discontinuations due to AEs” value [2]?
**A.** Its value is “no serious adverse events (SAEs) or discontinuations due to AEs”.

**Q.** What about the “onset of improvement in HAM-D total score compared to placebo” value ([3]; Capsules 30 mg at night with food) of the same compound?
**A.** Its value is “significant by the morning following the first dose (Day 2)”.

**Q.** And the “HAM-D total score, mean reduction from baseline” value ([3]; Day 15, Capsules 30 mg at night with food for 14 days, baseline 25.2, placebo 10.7)?
**A.** The value was 17.6 points.

**Q.** What about the “HAM-D total score, least squared mean difference from placebo” value ([3]; Day 15, p<0.0001) of the same compound?
**A.** Its value is −7.0.

**Q.** And the “remission rate (HAM-D total score not more than 7)” value ([3]; Day 15, placebo 23 percent, p=0.0005)?
**A.** The value was 64%.

**Q.** And the “HAM-D total score, mean reduction from baseline” value ([3]; Week 4, placebo 11.9, p=0.0243)?
**A.** The value was 15.6.

**Q.** What about the remission rate ([3]; Week 4, placebo 28 percent, p=0.0221) of the same compound?
**A.** The remission rate was 52%.

**Q.** What about the “HAM-D total score, mean reduction from baseline” value ([3]; Week 6, placebo 13.0, not statistically improved) of the same compound?
**A.** The value was 15.0.

**Q.** What about the remission rate ([3]; Week 6, placebo 33 percent, not significant) of the same compound?
**A.** Its remission rate is 45%.

**Q.** What about the “deaths, serious or severe adverse events” value ([4]; Capsules 30 mg for 14 days) of the same compound?
**A.** The value was “no deaths, serious or severe adverse events”.

**Q.** And the “most common AEs” value ([4]; Capsules 30 mg for 14 days)?
**A.** Its value is “headache, dizziness, nausea, and somnolence”.

**Q.** What about the tolerability ([4]; Capsules 30 mg for 14 days) of the same compound?
**A.** Its tolerability is “generally well-tolerated; also recorded: generally well tolerated”.

**Q.** What about the “overall incidence of patients who experienced adverse events” value ([4]; Capsules 30 mg for 14 days, placebo 46%) of the same compound?
**A.** Its value is 53%.

**Q.** What about the “rate of discontinuation from dosing of study drug due to adverse events” value ([4]; two patients, none with placebo) of the same compound?
**A.** The value was 4.4%.

From patent US20230310459A1, “NEUROACTIVE STEROIDS AND THEIR METHODS OF USE” (Sage Therapeutics, Inc., priority 2017, published 2023)
